Measured values reported in patent publication US9908886B2 (Agency for Science, Technology and Research, priority 2012, dated 2018).
Like-named read-outs stand apart in the source and are kept apart here.

What was measured:
MNK1 = MNK1 (Homo sapiens, UniProt Q9BUB5); assay: In vitro MNK kinase assay (Caliper LabChip mobility shift); format: biochemical
MNK2 = MNK2 (Homo sapiens (Human), UniProt Q9HBH9); assay: as above; format: biochemical
[1] = enzymatic, 1.2 mM ATP, read-out: IC50 Mnk1
[2] = enzymatic, 250 μM ATP, read-out: IC50 Mnk2

Chain of MNK2 (Q9HBH9 84-388): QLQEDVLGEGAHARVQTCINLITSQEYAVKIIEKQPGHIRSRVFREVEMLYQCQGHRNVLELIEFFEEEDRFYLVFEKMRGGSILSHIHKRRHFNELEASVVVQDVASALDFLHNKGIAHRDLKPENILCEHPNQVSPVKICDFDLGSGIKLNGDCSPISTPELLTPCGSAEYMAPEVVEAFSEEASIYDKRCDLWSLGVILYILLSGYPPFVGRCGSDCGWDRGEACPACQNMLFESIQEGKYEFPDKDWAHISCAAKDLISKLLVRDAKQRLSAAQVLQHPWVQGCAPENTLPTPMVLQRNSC

Row | Compound | IC50 (MNK1; [1]) [µM] | IC50 (MNK2; [2]) [µM] | IC50 (MNK1) [µM] | IC50 (MNK2) [µM]
1 | CC1(N2CCOCC2)CCN(C(=O)c2ccc(-c3ccc4ncc(-c5ccc(C#N)cc5)n4c3)cc2)CC1 [Example 163, 4-(6-(4-(4-methyl-4-morpholinopiperidine-1-carbonyl)phenyl)imidazo[1,2-a]pyridin-3-yl)benzonitrile] | < 0.1 | < 0.1 | – | –
2 | CN1CCN(C(=O)c2ccc(-c3ccc4ncc(-c5ccc(C#N)cc5)n4c3)cc2)CC1=O [Example 130, 4-(6-(4-(4-methyl-3-oxopiperazine-1-carbonyl)phenyl)imidazo[1,2-a]pyridin-3-yl)benzonitrile] | < 0.1 | < 0.1 | – | –
3 | CC(C)(C)N1CCN(C(=O)c2ccc(-c3cn4c(-c5ccc(C(N)=O)cc5)cnc4cn3)cc2)CC1 [Example 5, 4-(6-(4-(4-tert-butylpiperazine-1-carbonyl)phenyl)imidazo[1,2-a]pyrazin-3-yl)benzamide] | < 0.1 | < 0.1 | – | –
4 | Cc1cc2ncc(-c3ccc(C#N)cc3)n2cc1-c1ccc(C(=O)N2CCN(C)CC2)cc1 [Example 138, 4-(7-methyl-6-(4-(4-methylpiperazine-1-carbonyl)phenyl)imidazo[1,2-a]pyridin-3-yl)benzonitrile] | < 1 | < 1 | – | –
5 | O=C1Cc2cc(-c3cnc4ccc(-c5ccc(C(=O)N6CCC(N7CCOCC7)CC6)cc5)nn34)ccc2N1 [Example 94, 5-(6-(4-(4-morpholinopiperidine-1-carbonyl)phenyl)imidazo[1,2-b]pyridazin-3-yl)indolin-2-one] | < 0.1 | < 0.1 | – | –
6 | N#Cc1ccc(-c2cnc3ccc(-c4ccc(C(=O)N5CCN(Cc6ccc(C(N)=O)cc6)CC5)cc4)cn23)cc1 [Example 129, 4-((4-(4-(3-(4-cyanophenyl)imidazo[1,2-a]pyridin-6-yl)benzoyl)piperazin-1-yl)methyl)benzamide] | < 1 | < 0.1 | – | –
7 | CC(=O)Nc1cc(-c2ccc3ncc(-c4ccc(C#N)cc4)n3c2)ccc1C(=O)N1CCOCC1 [Example 166, N-(5-(3-(4-cyanophenyl)imidazo[1,2-a]pyridin-6-yl)-2-(morpholine-4-carbonyl)phenyl)acetamide] | < 0.1 | < 0.1 | – | –
8 | CN1CCN(C(=O)c2ccc(-c3ccc4ncc(-c5ccc(C#N)cc5)n4c3)c(F)c2)CC1 [Example 140, 4-(6-(2-fluoro-4-(4-methylpiperazine-1-carbonyl)phenyl)imidazo[1,2-a]pyridin-3-yl)benzonitrile] | < 0.1 | < 0.1 | – | –
9 | CN1CCN(C(=O)c2ccc(-c3ccc4ncc(-c5ccc(C#N)cc5)n4c3)cc2F)CC1 [Example 142, 4-(6-(3-fluoro-4-(4-methylpiperazine-1-carbonyl)phenyl)imidazo[1,2-a]pyridin-3-yl)benzonitrile] | < 1 | < 0.1 | – | –
10 | CN(C)C1CCN(C(=O)c2ccc(-c3ccc4ncc(-c5ccc(C#N)cc5)n4n3)cc2)CC1 [Example 63, 4-(6-(4-(4-(dimethylamino)piperidine-1-carbonyl)phenyl)imidazo[1,2-b]pyridazin-3-yl)benzonitrile] | < 0.1 | < 0.1 | – | –
11 | CCN1CCN(C(=O)c2ccc(-c3cn4c(-c5ccc(Cl)cc5)cnc4cn3)cc2)CC1 [Example 45, (4-(3-(4-chlorophenyl)imidazo[1,2-a]pyrazin-6-yl)phenyl)(4-ethylpiperazin-1-yl)methanone] | < 1 | < 1 | – | –
12 | COc1cc(C(=O)N2CCN(C)CC2)ccc1-c1ccc2ncc(-c3ccc(C#N)cc3)n2n1 [Example 78, 4-(6-(2-methoxy-4-(4-methylpiperazine-1-carbonyl)phenyl)imidazo[1,2-b]pyridazin-3-yl)benzonitrile] | < 0.1 | < 0.1 | – | –
13 | N#Cc1ccc(-c2cnn3ccc(-c4ccc(C(=O)N5CCOCC5)cc4)nc23)cc1 [Example 185, 4-(5-(4-(morpholine-4-carbonyl)phenyl)pyrazolo[1,5-a]pyrimidin-3-yl)benzonitrile] | < 0.1 | < 0.1 | – | –
14 | COc1cc(-c2cn3c(-c4ccc(C#N)cc4)cnc3cn2)ccc1C(=O)N1CCN(C)CC1 [Example 39, 4-(6-(3-methoxy-4-(4-methylpiperazine-1-carbonyl)phenyl)imidazo[1,2-a]pyrazin-3-yl)benzonitrile] | < 1 | < 1 | – | –
15 | CC(=O)Nc1cc(-c2ccc3ncc(-c4ccc(C#N)cc4)n3c2)ccc1C(=O)N1CCNCC1 [Example 170, N-(5-(3-(4-cyanophenyl)imidazo[1,2-a]pyridin-6-yl)-2-(piperazine-1-carbonyl)phenyl)acetamide] | < 0.1 | < 0.1 | – | –
16 | CCN(CC)C1(C)CCN(C(=O)c2ccc(-c3ccc4ncc(-c5ccc(C#N)cc5)n4c3)cc2)CC1 [Example 100, 4-(6-(4-(4-(diethylamino)-4-methylpiperidine-1-carbonyl)phenyl)imidazo[1,2-a]pyridin-3-yl)benzonitrile] | < 0.1 | < 0.1 | – | –
17 | COc1cc(-c2ccc3ncc(-c4ccc(C#N)cc4)n3c2)ccc1C(=O)N1CCOCC1 [Example 158] | < 1 | < 0.1 | – | –

Row | Compound | IC50 (MNK1; [1]) [µM] | IC50 (MNK2; [2]) [µM] | IC50 (MNK1) [µM] | IC50 (MNK2) [µM]
18 | N#Cc1ccc(-c2cnc3cnc(-c4ccc(C(=O)N5CCN(C6CC6)CC5)cc4)cn23)cc1 [Example 14, 4-(6-(4-(4-cyclopropylpiperazine-1-carbonyl)phenyl)imidazo[1,2-a]pyrazin-3-yl)benzonitrile] | < 1 | < 1 | – | –
19 | CN1CCN(C(=O)c2ccc(-c3cn4c(-c5ccc(Cl)cc5)cnc4cn3)cc2)CC1 [Example 41, (4-(3-(4-chlorophenyl)imidazo[1,2-a]pyrazin-6-yl)phenyl)(4-methylpiperazin-1-yl)methanone] | < 1 | < 1 | – | –
20 | CN1CCN(C(=O)c2ccc(-c3ccc4ncc(-c5ccc(C#N)cc5)n4c3)cc2C(F)(F)F)CC1 [Example 145, 4-(6-(4-(4-methylpiperazine-1-carbonyl)-3-(trifluoromethyl)phenyl)imidazo[1,2-a]pyridin-3-yl)benzonitrile] | < 0.1 | < 1 | – | –
21 | CC1(N)CCN(C(=O)c2ccc(-c3cn4c(-c5ccc(C#N)cc5)cnc4cn3)cc2F)CC1 [Example 30, 4-(6-(4-(4-amino-4-methylpiperidine-1-carbonyl)-3-fluorophenyl)imidazo[1,2-a]pyrazin-3-yl)benzonitrile] | < 1 | < 1 | – | –
22 | CC(=O)NC1CCN(C(=O)c2ccc(-c3ccn4ncc(-c5ccc(C#N)cc5)c4n3)cc2)CC1 [Example 186, N-(1-(4-(3-(4-cyanophenyl)pyrazolo[1,5-a]pyrimidin-5-yl)benzoyl)piperidin-4-yl)acetamide] | < 0.1 | < 0.1 | – | –
23 | CN(C(=O)c1ccc(-c2ccc3ncc(-c4ccc(C#N)cc4)n3c2)cc1)c1ccncc1 [Example 122, 4-(3-(4-cyanophenyl)imidazo[1,2-a]pyridin-6-yl)-N-methyl-N-(pyridin-4-yl)benzamide] | < 1 | < 1 | – | –
24 | N#Cc1ccc(-c2cnc3ccc(-c4ccc(C(=O)N5CCCOCC5)cc4)cn23)cc1 [Example 97] | < 0.1 | < 0.1 | – | –
25 | N#Cc1ccc(-c2cnc3ccc(-c4ccc(C(=O)N5CCNC(=O)C5)cc4)cn23)cc1 [Example 102, 4-(6-(4-(3-oxopiperazine-1-carbonyl)phenyl)imidazo[1,2-a]pyridin-3-yl)benzonitrile] | < 0.1 | < 0.1 | – | –
26 | N#Cc1ccc(-c2cnc3cnc(-c4ccc(C(=O)N5CCC(N)CC5)c(Cl)c4)cn23)cc1 [Example 31, 4-(6-(4-(4-aminopiperidine-1-carbonyl)-3-chlorophenyl)imidazo[1,2-a]pyrazin-3-yl)benzonitrile] | < 1 | < 1 | – | –
27 | O=C1CCN(C(=O)c2ccc(-c3cn4c(-c5ccc(Cl)cc5)cnc4cn3)cc2)CC1 [Example 43, 1-(4-(3-(4-chlorophenyl)imidazo[1,2-a]pyrazin-6-yl)benzoyl)piperidin-4-one] | < 1 | < 1 | – | –
28 | N#Cc1ccc(-c2cnc3ccc(-c4ccc(C(=O)N5CCC(N)CC5)cc4)cn23)cc1 [Example 109, 4-(6-(4-(4-aminopiperidine-1-carbonyl)phenyl)imidazo[1,2-a]pyridin-3-yl)benzonitrile] | < 0.1 | < 0.1 | – | –
29 | CN1CCN(C(=O)c2ccc(-c3ccc4ncc(-c5ccc(C#N)cc5)n4c3)c(Cl)c2)CC1 [Example 153] | < 1 | < 1 | – | –
30 | N#Cc1ccc(-c2cnc3ccc(-c4ccc(C(=O)N5CCOCC5)c(N5CCOCC5)c4)cn23)cc1 [Example 160, 4-(6-[3-(morpholin-4-yl)-4-(morpholin-4-ylcarbonyl)phenyl]imidazo[1,2-a]pyridin-3-yl)benzonitrile] | < 0.1 | < 0.1 | – | –
31 | CC(=O)Nc1cc(-c2ccc3ncc(-c4ccc(C#N)cc4)n3n2)ccc1C(=O)N1CCC(N(C)C)CC1 [Example 81, N-(5-(3-(4-cyanophenyl)imidazo[1,2-b]pyridazin-6-yl)-2-(4-(dimethylamino)piperidine-1-carbonyl)phenyl)acetamide] | < 0.1 | < 0.1 | – | –
32 | CN1CCN(C2CCN(C(=O)c3ccc(-c4ccc5ncc(-c6ccc7c(c6)CC(=O)N7)n5n4)cc3)CC2)CC1 [Example 89, 5-(6-(4-(4-(4-methylpiperazin-1-yl)piperidine-1-carbonyl)phenyl)imidazol[1,2-b]pyridazin-3-yl)indolin-2-one] | < 0.1 | < 0.1 | – | –
33 | CC(=O)N1CCCCC12CCN(C(=O)c1ccc(-c3ccc4ncc(-c5ccc(C#N)cc5)n4c3)cc1)CC2 [Example 118, 4-(6-(4-(1-acetyl-1,9-diazaspiro[5.5]undecane-9-carbonyl)phenyl)imidazo[1,2-a]pyridin-3-yl)benzonitrile] | < 0.1 | < 0.1 | – | –
34 | CNC1CCN(C(=O)c2ccc(-c3ccc4ncc(-c5ccc(C#N)cc5)n4c3)cc2NC(C)=O)CC1 [Example 169, N-(5-(3-(4-cyanophenyl)imidazo[1,2-a]pyridin-6-yl)-2-(4-(methylamino)piperidine-1-carbonyl)phenyl)acetamide] | – | – | < 0.1 | < 0.1
